The test system of assay [1] is COVID-19 virus. The assay is described as follows: Inhibition of cytopathic effect caused by COVID-19 virus in VeroE6 cells. The conditions noted are these: for inhibition of the cytopathic effect caused by the COVID-19 virus (in words): Example 2, VeroE6 cells. It counts as cell-based. For orientation: Damage to the host cells serves as the signal in cytopathic effect assays.

The test system of assay [2] is Claudin-1 protein. As to the kind of experiment: Claudin-1 mRNA expression in jejunum tissue of lipopolysaccharide-treated mice (quantitative PCR). It counts as in vivo, mouse. The conditions noted are these: 100 mg/kg, model 0.73, blank 1.07. Here is the method:
(§1) Animal grouping and administration: The animals were randomly divided into a blank group, a model group, a lysozyme group (100 mg/kg), lysozyme+monoammonium glycyrrhizinate group A (100 mg/kg+2 mg/kg), lysozyme+monoammonium glycyrrhizinate group B (100 mg/kg+10 mg/kg), lysozyme+monoammonium glycyrrhizinate group C (100 mg/kg+20 mg/kg), and a lysozyme+dipotassium glycyrrhizinate group (100 mg/kg+2 mg/kg), with eight animals in each group. Each drug group was administered intragastrically by each dose of drugs every day, while the blank group and the model group were administered with normal saline. The administration was performed for 30 consecutive days.
(§2) Model establishment: After administration, the animals of each group except the blank group were intraperitoneally injected with 15 mg/kg of lipopolysaccharides, and the blank group was injected with normal saline. The animals were fasted for 12 hours after injection.
(§3) Determination of expression of tight junction proteins in intestinal tissue: After the animals were sacrificed, jejunum tissue samples were taken for RNA extraction, the relative expression levels of occludin protein and Claudin-1 protein in the tissues were detected by quantitative PCR and the results were shown in Table 6.

The test system of assay [3] is lipopolysaccharide-induced intestinal barrier dysfunction in mice. As to the kind of experiment: Intestinal permeability (serum FITC-glucan) in lipopolysaccharide-induced intestinal barrier dysfunction in mice. It counts as in vivo, mouse. The conditions noted are these: 100 mg/kg intragastrically, 30 days, model 35.06, blank 9.40. An excerpt: Lipopolysaccharides could cause impaired intestinal function in animals. The protective effect of lysozyme and lysozyme combinations against lipopolysaccharide-induced intestinal barrier dysfunction in mice were studied in the present experiment.
Test drugs: lysozyme, monoammonium glycyrrhizinate, and dipotassium glycyrrhizinate.
Test animals: clean-grade male C57BL/6 mice, weighing 20 to 25 g.
Animal grouping and administration: The animals were randomly divided into a blank group, a model group, a lysozyme group (100 mg/kg), lysozyme+monoammonium glycyrrhizinate group A (100 mg/kg+2 mg/kg), lysozyme+monoammonium glycyrrhizinate group B (100 mg/kg+10 mg/kg), lysozyme+monoammonium glycyrrhizinate group C (100 mg/kg+20 mg/kg), and a lysozyme+dipotassium glycyrrhizinate group (100 mg/kg+2 mg/kg), with eight animals in each group. […]
Determination of intestinal permeability: The animals of each group were administered intragastrically with 600 mg/kg of FITC-glucan (dissolved in a phosphate buffer), and after 4 hours, blood was taken from eyeballs. The content of the FITC-glucan in the serum was measured by means of fluorescence spectrometry (with an excitation wavelength of 480 nm and an emission wavelength of 520 nm), and the results were shown in Table 5.

For assay [4], the system named is occludin protein. The assay is described as follows: Occludin mRNA expression in jejunum tissue of lipopolysaccharide-treated mice (quantitative PCR). It counts as in vivo, mouse. Particulars: 100 mg/kg, model 0.54, blank 1.04. As for the experimental part: as §1, §2, §3
For assay [5], the system named is guinea pigs which had inhaled smoke. The assay is described as follows: Airway resistance and lung function of guinea pigs which had inhaled smoke. It counts as in vivo, guinea pig. Here is the method:
The smoke-induced model was a classic animal model for chronic obstructive pulmonary disease. After inhaling smoke for a long period of time, animals could suffer from increased mucus secretion, airway obstruction, lung function decline, etc. The effect of the lysozyme on airway obstruction was evaluated by means of the model establishment method in the present experiment.
Lysozyme, monoammonium glycyrrhizinate, and monopotassium glycyrrhizinate.
Male Hartley guinea pigs, weighing 400 to 500 g, were randomly divided into a blank group, a model group, a lysozyme oral administration group (200 mg/kg), a lysozyme inhalation group (2 mg/kg), lysozyme+monoammonium glycyrrhizinate inhalation group (2 mg/kg+0.1 mg/kg), lysozyme+monopotassium glycyrrhizinate oral administration group I (200 mg/kg+20 mg/kg), and lysozyme+monopotassium glycyrrhizinate oral administration group II (200 mg/kg+40 mg/kg), with eight animals in each group.
The animals in each group except the blank group were exposed to cigarette smoke by using a smoke exposure system for oro-nasal inhalation only, such that the animals inhaled smoke of five cigarettes within 40 minutes per day, for 5 exposure days per week, for 12 consecutive weeks.
The lysozyme and monoammonium glycyrrhizinate used for inhalation administration were respectively crushed into powders with a particle size of less than 10 μm. The lysozyme and monopotassium glycyrrhizinate used for oral administration were respectively dissolved in normal saline.
The animals in each group except the blank group and the model group were administered once a day for 4 consecutive weeks from the 8th week after the model establishment began. The inhalation administration groups were administered by means of an oro-nasal inhalation exposure system, while the oral administration groups were administered intragastrically. Animals in the blank group and the model group were administered intragastrically with normal saline per day.
Airway resistance measurement and 100 ms (millisecond) expiratory volume measurement were performed after administration.
The animals were placed in a double chamber plethysmography system, and after the animals were left in a tranquil state for 10 minutes, the specific airway resistance (sRaw) was measured. The animals were anesthetized by intramuscular injection of ketamine, then a catheter was then inserted into the trachea, and the forced expiratory volume in 100 ms (FEV 100) of the animals was measured through a lung function testing system.

The mark [6] stands for this setting: inhalation, 2 mg/kg once a day for 4 weeks.

Consider `CC1(C)[C@@H](O[C@H]2O[C@H](C(=O)O)[C@@H](O)[C@H](O)[C@H]2O[C@@H]2O[C@H](C(=O)O)[C@@H](O)[C@H](O)[C@H]2O)CC[C@]2(C)[C@H]3C(=O)C=C4[C@@H]5C[C@@](C)(C(=O)O)CC[C@]5(C)CC[C@@]4(C)[C@]3(C)CC[C@@H]12.N` [Monoammonium glycyrrhizinate, monoammonium glycyrrhizinate], for which the “Inhibition rate (%)” value in assay [1] (1000 μg/ml, VeroE6 cells, 100 TCID50, 4 days) is listed as 23.35 ± 5.43%; in assay [1] (2000 μg/ml, VeroE6 cells, 100 TCID50, 4 days) it was 29.42 ± 7.16%. Moreover, the “inhibition of the cytopathic effect caused by the COVID-19 virus (in words)” value in assay [1] was “relatively weak inhibition effect”.
On to lysozyme, for which the “Relative expression quantity of Claudin-1 mRNA” value in assay [2] stood at 0.79 ± 0.16. Also, the “Content of FITC-glucan” value in assay [3] stood at 27.53 ± 3.21 µg/mL. Also, the “Relative expression quantity of Occludin mRNA” value in assay [4] turned out to be 0.69 ± 0.07. In assay [1] (350 μg/ml, Example 3), the “Inhibition rate (%)” value came out at 6.67 ± 1.56%. Besides, the “inhibition of the cytopathic effect caused by the COVID-19 virus (in words)” value in assay [1] was “significantly inhibited”. For the same molecule, the “100 ms expiratory volume” value in assay [5] (setting [6]) is given as 7.68 ± 1.36 mL; in assay [5] (oral administration, 200 mg/kg once a day for 4 weeks, model 4.18, blank 11.86), 5.79 ± 2.03 mL. For the same molecule, the “Airway resistance (cmH2O · s)” value in assay [5] (setting [6]) turned out to be 3.10 ± 0.14 cmH2O · s; in assay [5] (oral administration, 200 mg/kg once a day for 4 weeks, model 4.72, blank 1.43), 3.79 ± 0.30 cmH2O · s.

Values taken from patent US20220305092A1, “MEDICAMENT AND FOOD FOR PREVENTING OR TREATING NOVEL CORONAVIRUS PNEUMONIA COVID-19 AND USE THEREOF” (GUANGZHOU CENTURY CLINICAL RESEARCH CO., LTD, priority 2020, published 2022).
